These results are taken from patent US20160257697A1, “THIOPHENE-SUBSTITUTED TETRACYCLIC COMPOUNDS AND METHODS OFUSE THEREOF FOR THE TREATMENT OF VIRAL DISEASES” (priority 2013, published 2016).

Read-outs that look alike come from different tables or passages of the source.

Broadly, the IC50 is the concentration that gives 50% inhibition.

Holding throughout (experiment): microbe, parasite or virus in culture
Type in all cases: cell-based, Hepatitis C virus (HCV)
Holding throughout (settings): Replicon Assay A

The test system of one test is HCV replicon 2B. In a few lines: (§1)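 Cells seeded 2000/well + compound; 0.5% DMSO, 5% FBS; harvest day 3, lyse. Multiplex TaqMan RT-PCR for replicon (Neo probe) and cyclophilin RNA; amounts from Ct vs log(ng) linear regression of replicon total RNA standards.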
A further test has as its system HCV replicon 1A. In a few lines: as §1
A further test has as its system HCV replicon 1AY93H. The method, boiled down: as §1
Where [1] appears, read: read-out: 2B IC50, HCV replicon 2B.
Where [2] appears, read: read-out: 1A Y93H IC50, HCV replicon 1A Y93H.
[3] abbreviates: Hepatitis C virus, read-out: 2B IC50 (nM), replicon 2B.
Setting [4] is: Hepatitis C virus, read-out: 1A Y93H IC50 (nM), replicon 1AY93H.
[5] abbreviates: Hepatitis C virus, HCV replicon 1A.
[6] abbreviates: read-out: 1A Y93H IC50, replicon 1AY93H.
Where [7] appears, read: Hepatitis C virus, read-out: 1A Y93H IC50, HCV replicon 1A Y93H.

As to `COC(=O)N[C@H](C(=O)N1CCC[C@H]1c1ncc(-c2cc(F)c3c(c2)OC(c2cc4c(s2)CCCO4)n2c-3cc3cc(-c4cnc([C@@H]5CCCN5C(=O)[C@@H](NC(=O)OC)C5CCOC(C)(C)C5)[nH]4)ccc32)[nH]1)C(C)C` (single isomer, unassigned) [Compound 411], the IC50 with HCV replicon 2B (setting [1]) was found to be 0.2 nM; with HCV replicon 1A (HCV replicon 1A), 0.001 nM; with HCV replicon 1AY93H (setting [2]), 0.78 nM.
In the same order, the values of `COC(=O)N[C@H](C(=O)N1CCC[C@H]1c1cnc(-c2ccc3c(c2)cc2n3C(c3cc4ccccc4s3)Oc3cc(-c4cnc([C@@H]5CCCN5C(=O)[C@@H](NC(=O)OC)C5CCOCC5)[nH]4)ccc3-2)[nH]1)C1CCOCC1` (single isomer, unassigned) [Compound 811] are 0.664 nM, 0.042 nM and 0.058 nM.
On to `COC(=O)N[C@H](C(=O)N1CCC[C@H]1c1ncc(-c2cc(F)c3c(c2)OC(c2ccc(C4CC4)s2)n2c-3cc3cc(-c4cnc([C@@H]5CCCN5C(=O)[C@@H](NC(=O)OC)C5CCOCC5)[nH]4)ccc32)[nH]1)C(C)C` (single isomer, unassigned) [Compound 126], for which the IC50 turned out to be 0.21 nM in the test on HCV replicon 2B (setting [3]); 0.0019 nM in the test with HCV replicon 1A (Hepatitis C virus, replicon 1A); 0.27 nM with HCV replicon 1AY93H (setting [4]).
For the compound `COC(=O)N[C@H](C(=O)N1CCC[C@H]1c1ncc(-c2ccc3c(c2)OC(c2cc4ccccc4s2)n2c-3cc3cc(-c4cnc([C@@H]5C[C@@H](F)CN5C(=O)[C@@H](NC(=O)OC)C5CCOCC5)[nH]4)ccc32)[nH]1)C1CCOCC1` (single isomer, unassigned) [Compound 812], the IC50 with HCV replicon 2B (setting [1]) came to 0.15 nM; with HCV replicon 1A (setting [5]), 0.034 nM; with HCV replicon 1AY93H (setting [2]), 0.44 nM.
On to `COC(=O)N[C@H](C(=O)N1CCC[C@H]1c1ncc(-c2cc(F)c3c(c2)OC(c2cc(C)c(C(C)C)s2)n2c-3cc3cc(-c4cnc([C@@H]5CCCN5C(=O)[C@@H](NC(=O)OC)C(C)C)[nH]4)ccc32)[nH]1)C(C)C` (mixture of isomers) [Compound 64], for which the IC50 with HCV replicon 2B (setting [3]) stood at 4.01 nM; in the test on HCV replicon 1A (Hepatitis C virus, replicon 1A) it was 0.004 nM; in the test on HCV replicon 1AY93H (setting [4]) it was 0.15 nM.
Turning to `COC(=O)NC(C(=O)N1CCC[C@H]1c1ncc(-c2ccc3c(c2)cc2n3C(c3ccc(C4CC4)s3)Oc3cc(-c4cnc([C@@H]5CCCN5C(=O)[C@@H](NC(=O)OC)C(C)C)[nH]4)cc(F)c3-2)[nH]1)C1CCO[C@H](C)C1` (single isomer, unassigned) [Compound 137], the IC50 in the test on HCV replicon 2B (read-out: 2B IC50, replicon 2B) was 0.37 nM; in the test on HCV replicon 1A (replicon 1A) it was 0.0018 nM; in the test with HCV replicon 1AY93H (setting [6]), 0.28 nM.
For `COC(=O)N[C@H](C(=O)N1CCC[C@H]1c1nc(-c2ccc3c(c2)OC(c2ccc(C)s2)n2c-3cc3cc(-c4c[nH]c([C@@H]5NCCN5C(=O)[C@@H](NC(=O)OC)C(C)C)n4)ccc32)c[nH]1)C(C)C` (single isomer, unassigned) [Compound 702], the IC50 in the test on HCV replicon 2B (setting [1]) was 3.98 nM; in the test on HCV replicon 1A (HCV replicon 1A) it was 0.0074 nM; in the test with HCV replicon 1AY93H (setting [2]) it was 3.85 nM.
Turning to `CCc1ccc(C2Oc3cc(-c4cnc([C@@H]5CCCN5C(=O)[C@@H](NC(=O)OC)C(C)C)[nH]4)cc(F)c3-c3cc4cc(-c5cnc([C@@H]6C[C@@H](F)CN6C(=O)C(NC(=O)OC)C6CCOC(C)(C)C6)[nH]5)ccc4n32)s1` (single isomer, unassigned) [Compound 254], the IC50 in the test on HCV replicon 2B (read-out: 2B IC50, replicon 2B) worked out at 3.49 nM; with HCV replicon 1A (replicon 1A) it was 0.0011 nM; in the test on HCV replicon 1AY93H (setting [6]) it was 0.12 nM.
As to `COC(=O)N[C@H](C(=O)N1C2C[C@@H]2C[C@H]1c1nc(-c2ccc3c(c2)cc2n3C(c3ccc(Cl)s3)Oc3cc(-c4c[nH]c([C@@H]5C[C@H]6C[C@H]6N5C(=O)[C@@H](NC(=O)OC)C(C)C)n4)ccc3-2)c[nH]1)C(C)C` (mixture of isomers) [Compound 710], the IC50 with HCV replicon 2B (Hepatitis C virus, read-out: 2B IC50, HCV replicon 2B) came to 1.08 nM; with HCV replicon 1A (setting [5]), 0.05 nM; in the test on HCV replicon 1AY93H (setting [7]) it was 0.2 nM.
Take `COC(=O)NC(C(=O)N1[C@@H]2C[C@@H]2C[C@H]1c1ncc(-c2ccc3c(c2)cc2n3C(c3cc4ccccc4s3)Oc3cc(-c4cnc([C@@H]5CCCN5C(=O)[C@@H](NC(=O)OC)C(C)C)[nH]4)cc(F)c3-2)[nH]1)C1C[C@@H](C)O[C@@H](C)C1` (single isomer, unassigned) [Compound 648]: the IC50 with HCV replicon 2B (setting [1]) was 1.7 nM; with HCV replicon 1A (HCV replicon 1A), 0.0036 nM; with HCV replicon 1AY93H (setting [7]) it was 2.04 nM.
Take `COC(=O)NC(C(=O)N1CCC[C@H]1c1ncc(-c2ccc3c(c2)cc2n3C(c3ccc(C4CC4)s3)Oc3cc(-c4cnc([C@@H]5CCCN5C(=O)[C@@H](NC(=O)OC)C(C)C)[nH]4)cc(F)c3-2)[nH]1)C1CCOC(C)(C)C1` (single isomer, unassigned) [Compound 223]: the IC50 in the test on HCV replicon 2B (read-out: 2B IC50, replicon 2B) was found to be 0.27 nM; with HCV replicon 1A (replicon 1A), 0.0025 nM; in the test with HCV replicon 1AY93H (setting [6]), 0.24 nM.
In the same order, the values of `CCc1ccc(C2Oc3cc(-c4cnc([C@@H]5CCCN5C(=O)[C@@H](NC(=O)OC)C(C)C)[nH]4)cc(F)c3-c3cc4cc(-c5cnc([C@@H]6CCCN6C(=O)C(NC(=O)OC)C6C[C@@H](C)O[C@@H](C)C6)[nH]5)ccc4n32)s1` (single isomer, unassigned) [Compound 142] are 0.48 nM, 0.002 nM and 0.25 nM.
In the same order, the values of `COC(=O)NC(C(=O)N1CCC[C@H]1c1ncc(-c2cc(F)c3c(c2)OC(c2ccc(C4CC4)s2)n2c-3cc3cc(-c4cnc([C@@H]5CCCN5C(=O)[C@@H](NC(=O)OC)C5CCOCC5)[nH]4)ccc32)[nH]1)C(C)(C)F` (single isomer, unassigned) [Compound 171] are 4.06 nM, 0.0131 nM and 1.4 nM.
Take `COC(=O)N[C@H](C(=O)N1CCC[C@H]1c1ncc(-c2ccc3c(c2)OC(c2cc4ccccc4s2)n2c-3cc3cc(-c4cnc([C@@H]5C[C@@H](F)CN5C(=O)[C@@H](NC(=O)OC)C5CCOCC5)[nH]4)ccc32)[nH]1)C(C)C` (single isomer, unassigned) [Compound 627]: the IC50 is 0.631 nM in the test with HCV replicon 2B (setting [1]), 0.00302 nM in the test with HCV replicon 1A (HCV replicon 1A) and 0.0157 nM in the test with HCV replicon 1AY93H (setting [2]).
`COC(=O)N[C@H](C(=O)N1CCC[C@H]1c1ncc(-c2cc(F)c3c(c2)OC(c2ccc(CCF)s2)n2c-3cc3cc(-c4cnc([C@@H]5CCCN5C(=O)[C@@H](NC(=O)OC)C(C)C)[nH]4)ccc32)[nH]1)C(C)C` (single isomer, unassigned) [Compound 43]: the IC50 with HCV replicon 2B (read-out: 2B IC50, replicon 2B) was found to be 0.54 nM; in the test on HCV replicon 1A (Hepatitis C virus, replicon 1A), 0.0019 nM; in the test on HCV replicon 1AY93H (setting [6]) it was 0.12 nM.
In the same order, the values of `COC(=O)NC(C(=O)N1CCC[C@H]1c1ncc(-c2cc(F)c3c(c2)OC(c2ccc(C4CC4)s2)n2c-3cc3cc(-c4cnc([C@@H]5CCCN5C(=O)C(NC(=O)OC)C(C)(C)F)[nH]4)ccc32)[nH]1)C(C)(C)F` (single isomer, unassigned) [Compound 110] are 2.43 nM, 0.002 nM and 1.97 nM.
Taken in the same sequence, the figures for `COC(=O)N[C@H](C(=O)N1CCC[C@H]1c1ncc(-c2cc(F)c3c(c2)OC(c2sc(C4CC4)cc2C)n2c-3cc3cc(-c4cnc([C@@H]5CCCN5C(=O)[C@@H](NC(=O)OC)C(C)C)[nH]4)ccc32)[nH]1)C(C)C` (single isomer, unassigned) [Compound 328] were 1.73 nM, 0.001 nM and 2.8 nM.
As for `COC(=O)NC(C(=O)N1CCC[C@H]1c1ncc(-c2ccc3c(c2)cc2n3C(c3ccc(C4CC4)s3)Oc3cc(-c4cnc([C@@H]5CCCN5C(=O)[C@@H](NC(=O)OC)C(C)C)[nH]4)cc(F)c3-2)[nH]1)C1CCO[C@H](C)C1` (single isomer, unassigned) [Compound 140], the IC50 is 8.69 nM in the test with HCV replicon 2B (read-out: 2B IC50, replicon 2B); 0.0407 nM in the test on HCV replicon 1A (replicon 1A); 5.51 nM in the test with HCV replicon 1AY93H (setting [6]).
`COC(=O)N[C@H](C(=O)N1CCC[C@H]1c1ncc(-c2ccc3c(c2)OC(c2cc(C)c(C)s2)n2c-3cc3cc(-c4cnc([C@@H]5C[C@H]6C[C@H]6N5C(=O)[C@@H](NC(=O)OC)C(C)C)[nH]4)ccc32)[nH]1)C(C)C` (single isomer, unassigned) [Compound 501]: the IC50 in the test on HCV replicon 2B (setting [1]) was 8.37 nM; in the test on HCV replicon 1A (HCV replicon 1A), 0.024 nM; with HCV replicon 1AY93H (setting [2]), 4.35 nM.
Turning to `CCc1ccc(C2Oc3cc(-c4cnc([C@@H]5CCCN5C(=O)[C@@H](NC(=O)OC)C(C)C)[nH]4)cc(F)c3-c3cc4cc(-c5cnc([C@@H]6CCCN6C(=O)C(NC(=O)OC)C6CCOC(C)(C)C6)[nH]5)ccc4n32)s1` (single isomer, unassigned) [Compound 152], the IC50 in the test on HCV replicon 2B (read-out: 2B IC50, replicon 2B) was 0.53 nM; in the test with HCV replicon 1A (replicon 1A), 0.0016 nM; in the test with HCV replicon 1AY93H (setting [6]) it was 0.48 nM.
For `COC(=O)N[C@H](C(=O)N1CCC[C@H]1c1ncc(-c2ccc3c(c2)OC(c2ccc(C4CC4)s2)n2c-3cc3cc(-c4cnc([C@@H]5CCCN5C(=O)[C@@H](NC(=O)OC)C5CCOCC5)[nH]4)ccc32)[nH]1)C(C)C` (single isomer, unassigned) [Compound 334], the IC50 came to 0.0768 nM with HCV replicon 2B (read-out: 2B IC50, replicon 2B); 0.0024 nM in the test with HCV replicon 1A (Hepatitis C virus, replicon 1A); 0.159 nM in the test with HCV replicon 1AY93H (setting [6]).
On to `COC(=O)N[C@H](C(=O)N1C2CC2C[C@H]1c1ncc(-c2cc(F)c3c(c2)OC(c2ccc(C4CC4)s2)n2c-3cc3cc(-c4cnc([C@@H]5CCCN5C(=O)[C@@H](NC(=O)OC)C5C[C@@H](C)O[C@@H](C)C5)[nH]4)ccc32)[nH]1)C(C)C` (single isomer, unassigned) [Compound 556], for which the IC50 was 0.976 nM with HCV replicon 2B (setting [1]), 0.0512 nM with HCV replicon 1A (HCV replicon 1A) and 0.251 nM with HCV replicon 1AY93H (setting [2]).
